Experimental data as given in US10168342B2, “Lipid probes and uses thereof” (THE SCRIPPS RESEARCH INSTITUTE, priority 2015, dated 2019).

Key:
Experiment in all cases: isoTOP-ABPP mapping of AEA-DA-modified peptides in Neuro2a cells
Assay type in all cases: cell-based
[1] = biological target: T1, AEA-DA-modified peptides in Neuro2a cells (Mus musculus, UniProt O88545); conditions: AEA-DA-modified peptide COPS6 O88545 274-295, SEQ ID NO 24; probe 100 μM, 12 replicates
T1 construct: endogenous in cells; host or cells: Neuro2a
T1 sequence (O88545 whole entry): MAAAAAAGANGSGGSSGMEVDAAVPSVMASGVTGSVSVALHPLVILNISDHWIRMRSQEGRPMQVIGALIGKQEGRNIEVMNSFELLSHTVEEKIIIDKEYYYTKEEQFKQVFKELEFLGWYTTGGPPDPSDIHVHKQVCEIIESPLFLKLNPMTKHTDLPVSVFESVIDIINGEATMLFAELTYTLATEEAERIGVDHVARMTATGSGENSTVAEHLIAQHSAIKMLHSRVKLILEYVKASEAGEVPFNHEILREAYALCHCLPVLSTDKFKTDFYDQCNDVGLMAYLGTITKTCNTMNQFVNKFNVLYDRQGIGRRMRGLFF
Procedure: (§1) Experiments were performed as described above using the AEA-DA probe (100 μM) in 3.0 mL of DMEM (serum-free) and Neuro2A cells without (twelve replicates; ten biological; two technical). For the ligand competition study, cells were treated with the AEA-DA probe (50 μM) and DMSO or MJN228 (50 μM) treatment. Cells were harvested and processed as described above. Whole cell lysates (500 μL at 1.5 mg/mL) were processed for MS analysis using the previously described isoTOPABPP protocol (Speers and Cravatt, 2005). In brief, for global mapping of AEA-DA-modified peptides, proteomes were split into two fractions, which were subjected to click chemistry conditions with either light or heavy isotopically labeled TEV-tags. For the […] competition study, proteomes were subjected to click chemistry conditions with either light (DMSO) or heavy (MJN228-treated) TEV-tags. Light and heavy-tagged proteomes in each experiment were then combined, and, following enrichment of probe-labeled targets using streptavidin beads, proteins were digested on-bead with trypsin and remaining immobilized peptides released with a subsequent TEV protease digestion. The resulting probe-modified peptides were collected for MS analysis, which was performed as described above with differences in the salt bumps applied in the chromatographic gradients which were 0%, 30%, 60%, 90% and 100% NH4OAc (500 mM). The protein identification searches of the MS data were performed using the same software packages described above with the following changes applied to identify the peptides modified with AEA-DA and the cleaved TEV tag. All amino acids were considered as possible residues for modification. To facilitate the computational searches, sets of up to 3 amino acids were searched using ProLuCID and filtered with DTASelect as described above. The mass of the modification used to search for probe-modified peptides was +727.4745 m/z for the probe plus the light TEV-tag and +733.4831 m/z for the heavy counterpart. […] For global mapping experiments, AEA-DA-modified peptides were expected to show a ratio of “heavy” and “light” signals of ˜1.0 (0.5<ratio<2.0) and were required to have been detected in at least two of the twelve replicate experiments.
(§2) In some embodiments, the ligands are tested for their interaction to NUCB1 in cells. […] MJN228 inhibited lipid probe binding to NUCB1 at concentrations as low as 10 μM, with near-maximal inhibition observed at ˜25 μM (FIG. 16A). […] The site of arachidonoyl probe (and MJN228) binding to NUCB1 was mapped in cells, which was accomplished by treating Neuro2A cells with the AEA-DA probe (50 μM) in the presence of DMSO or MJN228 (50 μM), followed by UV irradiation, CuAAC conjugation of AEA-DA-labeled proteins to isotopically light (DMSO-treated cells) and heavy (MJN228-treated cells) azide-biotin tags featuring a TEV protease-cleavable linker, and LCMS/MS analysis using a previously described platform, termed isoTOP-ABPP, for mapping probe-modified peptides in proteomes (Speers and Cravatt, 2005). A AEA-DA labeled peptide was identified for NUCB1 (aa 53-68) in DMSO-treated cells and the signals for this peptide were substantially (>5-fold) reduced in MJN228-treated cells (FIG. 15C). This AEA-DA labeling site was confirmed using recombinant, purified hNUCB1 and tandem MS analysis which narrowed down the site of probe modification to His67 (FIGS. 16B and 16C).

[2] = biological target: T2, AEA-DA-modified peptides in Neuro2a cells (Mus musculus, UniProt P48678); conditions: AEA-DA-modified peptide LMNA P48678 281-297, SEQ ID NO 55; probe 100 μM, 12 replicates
T2 construct: endogenous in cells; host or cells: Neuro2a
T2 sequence (P48678 whole entry): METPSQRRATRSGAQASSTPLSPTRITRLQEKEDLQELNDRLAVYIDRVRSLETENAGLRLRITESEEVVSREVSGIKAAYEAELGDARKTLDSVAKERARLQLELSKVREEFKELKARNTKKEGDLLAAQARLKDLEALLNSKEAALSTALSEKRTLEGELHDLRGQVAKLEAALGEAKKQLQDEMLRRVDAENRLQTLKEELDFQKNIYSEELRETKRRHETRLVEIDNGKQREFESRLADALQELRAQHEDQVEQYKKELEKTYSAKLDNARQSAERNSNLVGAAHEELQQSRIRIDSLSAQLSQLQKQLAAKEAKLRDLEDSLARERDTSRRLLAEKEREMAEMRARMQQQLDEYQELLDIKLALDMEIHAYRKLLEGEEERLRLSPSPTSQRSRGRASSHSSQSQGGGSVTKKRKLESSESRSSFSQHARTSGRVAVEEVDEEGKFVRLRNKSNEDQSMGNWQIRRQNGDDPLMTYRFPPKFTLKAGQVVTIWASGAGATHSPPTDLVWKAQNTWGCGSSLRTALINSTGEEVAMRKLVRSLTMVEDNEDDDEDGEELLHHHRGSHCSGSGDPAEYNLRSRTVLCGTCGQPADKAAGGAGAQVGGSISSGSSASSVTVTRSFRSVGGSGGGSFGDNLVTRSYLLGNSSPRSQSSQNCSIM
Procedure: as §1, §2

[3] = biological target: T3, AEA-DA-modified peptides in Neuro2a cells (Mus musculus, UniProt P56812); conditions: AEA-DA-modified peptide PDCD5 P56812 69-80, SEQ ID NO 80; probe 100 μM, 12 replicates
T3 construct: endogenous in cells; host or cells: Neuro2a
T3 sequence (P56812 whole entry): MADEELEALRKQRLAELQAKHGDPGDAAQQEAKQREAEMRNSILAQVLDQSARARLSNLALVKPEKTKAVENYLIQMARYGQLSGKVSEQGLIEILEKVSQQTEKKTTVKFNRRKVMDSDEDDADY
Procedure: as §1, §2

[4] = biological target: T4, AEA-DA-modified peptides in Neuro2a cells (Mus musculus, UniProt P61759); conditions: AEA-DA-modified peptide VBP1 P61759 153-178, SEQ ID NO 119; probe 100 μM, 12 replicates
T4 construct: endogenous in cells; host or cells: Neuro2a
T4 sequence (P61759 whole entry): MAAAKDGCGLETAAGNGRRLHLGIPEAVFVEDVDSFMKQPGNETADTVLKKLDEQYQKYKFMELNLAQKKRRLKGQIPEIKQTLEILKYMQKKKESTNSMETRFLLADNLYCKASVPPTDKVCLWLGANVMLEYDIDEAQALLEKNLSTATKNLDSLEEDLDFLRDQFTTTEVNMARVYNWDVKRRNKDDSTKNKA
Procedure: as §1, §2

[5] = biological target: T5, AEA-DA-modified peptides in Neuro2a cells (Mus musculus, UniProt P84084); conditions: AEA-DA-modified peptide ARF5 P84084 39-60, SEQ ID NO 14; probe 100 μM, 12 replicates
T5 construct: endogenous in cells; host or cells: Neuro2a
T5 sequence (P84084 whole entry): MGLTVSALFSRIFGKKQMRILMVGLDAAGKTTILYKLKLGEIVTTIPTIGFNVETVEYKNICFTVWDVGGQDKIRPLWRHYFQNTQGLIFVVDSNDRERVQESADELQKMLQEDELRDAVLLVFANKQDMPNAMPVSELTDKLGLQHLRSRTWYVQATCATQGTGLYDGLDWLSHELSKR
Procedure: as §1, §2

[6] = biological target: T6, AEA-DA-modified peptides in Neuro2a cells (Mus musculus, UniProt Q60864); conditions: AEA-DA-modified peptide STIP1 Q60864 506-514, SEQ ID NO 106; probe 100 μM, 12 replicates
T6 construct: endogenous in cells; host or cells: Neuro2a
Procedure: as §1, §2

[7] = biological target: T7, AEA-DA-modified peptides in Neuro2a cells (Mus musculus, UniProt Q61425); conditions: AEA-DA-modified peptide HADH Q61425 250-272, SEQ ID NO 47; probe 100 μM, 12 replicates
T7 construct: endogenous in cells; host or cells: Neuro2a
T7 sequence (Q61425 13-314): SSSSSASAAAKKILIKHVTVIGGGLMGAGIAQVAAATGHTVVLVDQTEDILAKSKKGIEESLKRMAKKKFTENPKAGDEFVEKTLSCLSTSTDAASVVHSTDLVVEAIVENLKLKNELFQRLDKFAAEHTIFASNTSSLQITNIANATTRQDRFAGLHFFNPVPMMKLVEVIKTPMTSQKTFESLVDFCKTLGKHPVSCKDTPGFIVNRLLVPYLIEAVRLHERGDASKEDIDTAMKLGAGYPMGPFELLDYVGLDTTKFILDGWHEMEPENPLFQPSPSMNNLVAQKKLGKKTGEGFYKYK
Procedure: as §1, §2

[8] = biological target: T8, AEA-DA-modified peptides in Neuro2a cells (Mus musculus, UniProt Q925I1); conditions: AEA-DA-modified peptide ATAD3 Q92511 238-246, SEQ ID NO 16; probe 100 μM, 12 replicates
T8 construct: endogenous in cells; host or cells: Neuro2a
T8 sequence (Q925I1 whole entry): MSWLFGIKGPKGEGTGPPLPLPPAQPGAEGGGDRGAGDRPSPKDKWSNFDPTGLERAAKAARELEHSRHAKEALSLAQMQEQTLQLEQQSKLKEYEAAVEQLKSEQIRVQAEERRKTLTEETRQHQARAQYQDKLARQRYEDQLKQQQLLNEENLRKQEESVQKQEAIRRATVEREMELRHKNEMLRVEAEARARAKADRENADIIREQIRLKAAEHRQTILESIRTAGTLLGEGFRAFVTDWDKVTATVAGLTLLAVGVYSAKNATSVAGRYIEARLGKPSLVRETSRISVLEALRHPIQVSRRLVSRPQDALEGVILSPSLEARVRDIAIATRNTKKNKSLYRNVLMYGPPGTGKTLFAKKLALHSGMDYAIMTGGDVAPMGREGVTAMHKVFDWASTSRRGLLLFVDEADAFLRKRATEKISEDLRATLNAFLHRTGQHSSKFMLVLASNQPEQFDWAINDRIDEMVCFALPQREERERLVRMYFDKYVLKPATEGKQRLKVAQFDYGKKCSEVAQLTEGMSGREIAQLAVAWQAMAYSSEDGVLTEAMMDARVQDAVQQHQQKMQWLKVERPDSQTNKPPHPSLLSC
Procedure: as §1, §2

[9] = biological target: T9, AEA-DA-modified peptides in Neuro2a cells (Mus musculus, UniProt Q9CPQ8); conditions: AEA-DA-modified peptide ATP5L Q9CPQ8 36-55, SEQ ID NO 19; probe 100 μM, 12 replicates
T9 construct: endogenous in cells; host or cells: Neuro2a
T9 sequence (Q9CPQ8 whole entry): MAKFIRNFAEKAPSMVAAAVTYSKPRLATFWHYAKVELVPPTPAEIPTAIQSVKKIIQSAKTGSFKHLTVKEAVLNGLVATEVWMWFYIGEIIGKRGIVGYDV
Procedure: as §1, §2

[10] = biological target: T10, AEA-DA-modified peptides in Neuro2a cells (Mus musculus, UniProt Q9DBL9); conditions: AEA-DA-modified peptide ABHD5 Q9DBL9 321-343, SEQ ID NO 2; probe 100 μM, 12 replicates
T10 construct: endogenous in cells; host or cells: Neuro2a
T10 sequence (Q9DBL9 whole entry): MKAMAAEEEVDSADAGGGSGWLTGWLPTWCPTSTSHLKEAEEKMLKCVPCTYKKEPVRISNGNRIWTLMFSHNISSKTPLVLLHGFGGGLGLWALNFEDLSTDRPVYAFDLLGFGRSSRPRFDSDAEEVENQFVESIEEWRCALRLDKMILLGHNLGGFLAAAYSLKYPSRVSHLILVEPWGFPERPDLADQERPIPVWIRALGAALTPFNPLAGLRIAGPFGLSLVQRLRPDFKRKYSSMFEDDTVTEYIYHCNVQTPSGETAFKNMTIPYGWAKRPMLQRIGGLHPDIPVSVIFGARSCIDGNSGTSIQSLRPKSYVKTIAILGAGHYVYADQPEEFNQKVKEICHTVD
Procedure: as §1, §2

[11] = biological target: T11, AEA-DA-modified peptides in Neuro2a cells (Mus musculus, UniProt Q9JKW0); conditions: AEA-DA-modified peptide ARL6IP1 Q9JKW0 8-36, SEQ ID NO 15; probe 100 μM, 12 replicates
T11 construct: endogenous in cells; host or cells: Neuro2a
T11 sequence (Q9JKW0 whole entry): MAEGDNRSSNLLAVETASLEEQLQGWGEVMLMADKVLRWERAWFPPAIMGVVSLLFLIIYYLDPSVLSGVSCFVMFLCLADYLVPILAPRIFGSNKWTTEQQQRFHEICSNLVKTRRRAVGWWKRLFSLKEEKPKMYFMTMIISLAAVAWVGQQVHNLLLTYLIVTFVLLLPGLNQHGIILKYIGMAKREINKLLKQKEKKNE
Procedure: as §1, §2

[12] = biological target: T12, AEA-DA-modified peptides in Neuro2a cells (Mus musculus, UniProt Q9Z2Z6); conditions: AEA-DA-modified peptide SLC25A20 Q9Z2Z6 179-195, SEQ ID NO 103; probe 100 μM, 12 replicates
T12 construct: endogenous in cells; host or cells: Neuro2a
T12 sequence (Q9Z2Z6 whole entry): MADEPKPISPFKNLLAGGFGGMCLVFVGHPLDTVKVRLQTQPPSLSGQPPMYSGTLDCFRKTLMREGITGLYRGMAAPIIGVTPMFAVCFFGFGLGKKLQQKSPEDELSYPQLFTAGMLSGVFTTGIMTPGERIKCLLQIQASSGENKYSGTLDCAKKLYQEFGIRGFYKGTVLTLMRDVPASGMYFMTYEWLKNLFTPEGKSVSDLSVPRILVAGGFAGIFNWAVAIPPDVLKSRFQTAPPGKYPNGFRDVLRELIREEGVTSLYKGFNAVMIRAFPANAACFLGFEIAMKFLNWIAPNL
Procedure: as §1, §2

Compound: C#CCCCC1(CC/C=C\C/C=C\C/C=C\CCCC(=O)NCCO)N=N1 [AEA-DA, (5Z,8Z,11Z)-N-(2-hydroxyethyl)-14-(3-(pent-4-yn-1-yl)-3H-diazirin-3-yl)tetradeca-5,8,11-trienamide]
- Times observed [1]: 8
- Times observed [2]: 2
- Times observed [3]: 5
- Times observed [4]: 2
- Times observed [5]: 9
- Times observed [6]: 3
- Times observed [7]: 10
- Times observed [8]: 3
- Times observed [9]: 3
- Times observed [10]: 6
- Times observed [11]: 2
- Times observed [12]: 4
